Laboratory results reported in US6806286B2, “Pyrrolecarboxamides and pyrrolethioamides as fungicides” (Syngenta Crop Protection, Inc., priority 2000, dated 2004).

Legend:
[1] = test system: Podosphaera leucotricha; test: Action against Podosphaera leucotricha/apple (powdery mildew on apple); type: in vivo; conditions: apple seedlings cv. McIntosh, spray 0.002% active ingredient, inoculated one day after application, assessed after 12 days incubation
Procedure: Action Against Podosphaera leucotricha/apple (Powdery Mildew on Apple)
5 week old apple seedlings cv. […] One day after application apple plants are inoculated by shaking plants infected with apple powdery mildew above the test plants. After an incubation period of 12 days at 22° C. and 60% r. h. under a light regime of 14/10 h (light/dark) the disease incidence is assessed.

[2] = test system: Etysiphe graminis; test: Action against Etysiphe graminis/barley (powdery mildew on barley); type: in vivo; conditions: barley plants cv. Express, spray 0.02% active ingredient, inoculated one day after application, assessed after 6 days incubation
Procedure: Action Against Etysiphe graminis/barley (Powdery Mildew on Barley)
1 week old barley plants cv. […] One day after application barley plants are inoculated by shaking powdery mildew infected plants above the test plants. After an incubation period of 6 days at 20° C./18° C. (day/night) and 60% r. h. in a greenhouse the disease incidence is assessed.

[3] = test system: Botryis cinerea; test: Action against Botryis cinerea/apple (Botrytis on apple fruits); type: in vivo, B. cinerea; conditions: apple fruit cv. Golden Delicious, 30 μl droplets 0.002% active ingredient in drilled holes, inoculated two hours after application, assessed after 7 days
Procedure: Action Against Botryis cinerea/apple (Botrytis on Apple Fruits)
In an apple fruit cv. […] Two hours after application 50 μl of a spore suspension of B. cinerea (4×10^5 conidia/ml) are pipetted on the application sites. After an incubation period of 7 days at 22° C. in a growth chamber the disease incidence is assessed.

[4] = test system: Botryts cinerea; test: Action against Botryts cinerea/tomato (Botrytis on tomatoes); type: in vivo; conditions: tomato plants cv. Roter Gnom, spray 0.002% active ingredient, inoculated two days after application, assessed after 4 days incubation
Procedure: Action Against Botryts cinerea/tomato (Botrytis on Tomatoes)
4 week old tomato plants cv. […] Two days after application tomato plants are inoculated by spraying a spore suspension (1×10^5 conidia/ml) on the test plants. After an incubation period of 4 days at 20° C. and 95% r. h. in a growth chamber the disease incidence is assessed.

[5] = test system: Puenophora teres; test: Action against Puenophora teres/barley (net blotch on barley); type: in vivo; conditions: barley plants cv. Express, spray 0.002% active ingredient, inoculated two days after application, assessed 4 days after inoculation
Procedure: Action Against Puenophora teres/barley (Net Blotch on Barley)
1 week old barley plants cv. […] Two days after application barley plants are inoculated by spraying a spore suspension (3×10^4 conidia/ml) on the test plants. After an incubation period of 2 days at 20° C. and 95% r. h. plants are kept for 2 days at 20° C. and 60% r.h. in a greenhouse. The disease incidence is assessed 4 days after inoculation.

[6] = test system: Boftis cinerea; test: Action against Boftis cinerea/grape (Botrytis on grapes); type: in vivo; conditions: grape seedlings cv. Gutedel, spray 0.002% active ingredient, inoculated two days after application, assessed after 4 days incubation
Procedure: Action Against Boftis cinerea/grape (Botrytis on Grapes)
5 week old grape seedlings cv. […] Two days after application grape plants are inoculated by spraying a spore suspension (1×10^6 conidia/ml) on the test plants. After an incubation period of 4 days at 21° C. and 95% r. h. in a greenhouse the disease incidence is assessed.

[7] = test system: Venturia Inaequalis; test: Action against Venturia inaequalis/apple (scab on apple); type: in vivo; conditions: apple seedlings cv. McIntosh, spray 0.02% active ingredient, inoculated one day after application, assessed after 4+4+4 days incubation
Procedure: Action Against Venturia Inaequalis/apple (Scab on Apple)
4 week old apple seedlings cv. […] One day after application apple plants are inoculated by spraying a spore suspension (4×10^5 conidia/ml) on the test plants. After an incubation period of 4 days at 21° C. and 95% r. h. the plants are placed for 4 days at 21° C. and 60% r. h. in a greenhouse. After another 4 day incubation period at 21° C. and 95% r. h. the disease incidence is assessed.

[8] = test system: Septoria nodorum; test: Action against Septoria nodorum/wheat (Septoria leaf spot on wheat); type: in vivo; conditions: wheat plants cv. Arina, spray 0.02% active ingredient, inoculated one day after application, assessed 11 days after inoculation
Procedure: Action Against Septoria nodorum/wheat (Septoria Leaf Spot on Wheat)
1 week old wheat plants cv. […] One day after application wheat plants are inoculated by spraying a spore suspension (5×10^5 conidia/ml) on the test plants. After an incubation period of 1 day at 20° C. and 95% r. h. plants are kept for 10 days at 20° C. and 60% r.h. in a greenhouse. The disease incidence is assessed 11 days after inoculation.

Measured: efficacy (disease incidence)

CC1CC(C)(C)c2cccc(NC(=O)c3cn(C)cc3C(F)(F)C(F)(F)F)c21 (racemic) [Compound 10.5]
strong efficacy: all assays above

Cc1cn(C)cc1C(=O)Nc1ccccc1C1=CCCCC1 [Compound 1.5]
strong efficacy: all assays above

Cc1cn(C)cc1C(=O)Nc1ccccc1C1CCCCC1 [Compound 1.9]
strong efficacy: all assays above

Cc1cn(C)cc1C(=O)Nc1ccccc1-c1ccc(Cl)cc1 [Compound 1.23]
strong efficacy: all assays above

Cc1cn(C)cc1C(=O)Nc1ccccc1-c1ccncc1F [Compound 1.46]
strong efficacy: all assays above

Cn1cc(C(=O)Nc2ccccc2-c2ccc(Cl)cc2)c(C(F)F)c1 [Compound 1.144]
strong efficacy: all assays above

Cn1cc(C(=O)Nc2ccccc2C2=CCCCC2)c(C(F)(F)C(F)(F)F)c1 [Compound 1.183]
strong efficacy: all assays above

Cn1cc(C(=O)Nc2ccccc2C2CCCCC2)c(C(F)(F)C(F)(F)F)c1 [Compound 1.187]
strong efficacy: all assays above

Cn1cc(C(=O)Nc2ccccc2-c2ccc(Cl)cc2)c(C(F)(F)C(F)(F)F)c1 [Compound 1.190]
strong efficacy: all assays above

Cn1cc(C(=O)Nc2ccccc2-c2ccc(F)cc2)c(C(F)(F)C(F)(F)F)c1 [Compound 1.192]
strong efficacy: all assays above

Cn1cc(C(=O)Nc2ccccc2C2CCCCC2)c(C2CC2)c1 [Compound 1.206]
strong efficacy: all assays above

Cn1cc(C(=O)Nc2ccccc2-c2ccncc2F)c(C2CC2)c1 [Compound 1.244]
strong efficacy: all assays above

CCc1cn(C)cc1C(=O)Nc1ccccc1-c1ccc(Cl)cc1 [Compound 1.260]
strong efficacy: all assays above

CCc1cn(C)cc1C(=O)Nc1ccccc1-c1ccc(F)cc1 [Compound 1.261]
strong efficacy: all assays above

CCc1cn(CC)cc1C(=O)Nc1ccccc1-c1ccc(Cl)cc1 [Compound 1.265]
strong efficacy: all assays above
